Numbers after ± are expanded uncertainties.
Conditions: Pulse-echo method

Cl [hydrogen chloride]
Liquid
Conditions | speed of sound [m/s]
218.3 K | 940 ± 3
224.3 K | 910 ± 3
229.2 K | 887 ± 3
233.1 K | 865 ± 3
243 K | 814 ± 3
248 K | 790 ± 4
252.9 K | 762 ± 4
258 K | 734 ± 4
263 K | 705 ± 4
268 K | 676 ± 5
273 K | 646 ± 5

Fluid (supercritical or subcritical phases)
Conditions | speed of sound [m/s]
267 K, 7500 kPa | 735 ± 6
269.9 K, 9700 kPa | 740 ± 6
274.8 K, 13900 kPa | 751 ± 5
279.8 K, 5500 kPa | 634 ± 7
279.8 K, 18000 kPa | 761 ± 5
284.8 K, 8500 kPa | 640 ± 7
284.8 K, 22200 kPa | 773 ± 4
289.7 K, 11800 kPa | 652 ± 7
289.8 K, 26500 kPa | 783 ± 4
292.9 K, 6900 kPa | 564 ± 9
294.8 K, 15600 kPa | 666 ± 6
294.8 K, 30800 kPa | 794 ± 4
295 K, 8000 kPa | 567 ± 9
299.8 K, 19200 kPa | 678 ± 6
300 K, 11100 kPa | 582 ± 9
300 K, 35100 kPa | 805 ± 4
303.1 K, 37700 kPa | 810 ± 4
305 K, 14200 kPa | 595 ± 8
305 K, 22900 kPa | 690 ± 6
305 K, 39300 kPa | 814 ± 4
310 K, 17300 kPa | 608 ± 7
310 K, 26300 kPa | 700 ± 5
315 K, 20400 kPa | 621 ± 7
315 K, 30000 kPa | 712 ± 5
320 K, 10800 kPa | 425 ± 15
320 K, 23500 kPa | 632 ± 6
320 K, 33600 kPa | 722 ± 4
325 K, 12900 kPa | 441 ± 9
325 K, 26600 kPa | 643 ± 6
325 K, 37200 kPa | 732 ± 4
328 K, 39300 kPa | 738 ± 4
330 K, 15100 kPa | 456 ± 9
330 K, 29800 kPa | 654 ± 5
335 K, 17200 kPa | 469 ± 9
335 K, 32900 kPa | 665 ± 5
340 K, 19300 kPa | 482 ± 10
340 K, 36000 kPa | 675 ± 5
345 K, 21500 kPa | 494 ± 8
345 K, 39200 kPa | 685 ± 5
350 K, 23700 kPa | 506 ± 7
355 K, 25900 kPa | 517 ± 6
359.9 K, 21500 kPa | 433 ± 9
360 K, 28000 kPa | 527 ± 8
365 K, 30200 kPa | 537 ± 7
369.9 K, 24900 kPa | 454 ± 8
370 K, 32400 kPa | 547 ± 5
374.9 K, 34600 kPa | 556 ± 5
379.9 K, 28400 kPa | 473 ± 6
379.9 K, 36800 kPa | 565 ± 6
385.9 K, 39400 kPa | 575 ± 7
389.9 K, 31800 kPa | 491 ± 6
394.9 K, 22700 kPa | 371 ± 6
399.9 K, 12100 kPa | 324 ± 2
399.9 K, 35300 kPa | 508 ± 6
404.9 K, 24800 kPa | 386 ± 5
409.9 K, 21600 kPa | 356 ± 5
411.9 K, 39500 kPa | 526 ± 6
414.9 K, 26900 kPa | 400 ± 6
419.9 K, 13200 kPa | 339 ± 2
419.9 K, 23100 kPa | 368 ± 3
424.9 K, 29000 kPa | 414 ± 6
434.9 K, 31000 kPa | 426 ± 5
439.9 K, 14300 kPa | 355 ± 2
439.9 K, 26100 kPa | 390 ± 3
444.9 K, 33100 kPa | 438 ± 5
459.9 K, 29100 kPa | 411 ± 3
460 K, 15500 kPa | 369 ± 2
460 K, 36100 kPa | 456 ± 4
474.9 K, 39200 kPa | 472 ± 4
479.9 K, 16500 kPa | 383 ± 2
479.9 K, 32000 kPa | 430 ± 3

From the NIST ThermoML archive (doi:10.1021/acs.jced.7b01031)
